Data as given in ChEMBL document CHEMBL4321815, “Discovery of an Extremely Potent Thiazine-Based β-Secretase Inhibitor with Reduced Cardiovascular and Liver Toxicity at a Low Projected Human Dose” (J Med Chem, 2019).

Key:
Homo sapiens = experiment: In vivo inhibition of BACE1 in human assessed as reduction in amyloidbeta level at 30 mg administered once daily after 14 days MSD electrochemiluminescent immunoassay relative to control; assay type: functional
[1] = Hepatotoxicity in Beagle dog assessed as increase in alanine aminotransferase level at 50 mg/kg/day, po administered for 2 weeks; assay type: toxicity, organism-based, Canis lupus familiaris; details: in vivo, 336 h
[2] = Hepatotoxicity in po dosed Beagle dog assessed as induction of inflammatory cell infiltration of centrilobular hepatocytes at highest dose administered for 2 weeks; assay type: toxicity, organism-based, Canis lupus familiaris; details: in vivo, 336 h

For `C[C@@]1(c2cc(NC(=O)c3ccc(C#N)cn3)ccc2F)C=CSC(N)=N1` [ATABECESTAT], the “inhibition (INH)” value (Homo sapiens) was 80%, the Activity [1] was “Toxic” and the Activity [2] was “Toxic”.
